These results are taken from US20010031268A1, “Antigen preparations” (priority 1999, published 2001).

SMILES strings stand for the structures.

In one assay the test system is E. coli. The conditions noted are these: low inoculum levels (50-1000 bacterial cells/ml).
The next assay has as its system Neisseria. Particulars: no catechol inducer.
A further assay relates to Neisseria meningitidis. The experiment in a line: SDS-PAGE protein analysis of bacteria grown with and without norepinephrine bitartrate. Format: cell-based. An excerpt:
Samples of “test” bacteria grown as described above in MEM containing NEAA, iron chelator (ABS) and iron (Vitox) both in the presence and absence of norepinephrine bitartrate were taken. The samples were centrifuged to pellet bacteria. The bacterial pellets obtained were resuspended in 50 microliters of TE buffer (Sambrook et al: 1989, Molecular cloning: A Laboratory Manual, Cold Spring Harbour Laboratory Press, N.Y.) and 200 microliters of SDS-PAGE solubilisation buffer added (Sambrook et al: as above). The mixture was then heated at 70 deg C to solubilize proteins. Samples and appropriate molecular weight markers were then run on 10% and 12% SDS-polyacrylamide gels. The gels were then stained with Coomassie blue stain, according to a standard method, and protein bands observed.
Culture was carried out in MEM medium containing NEAA, iron (Vitox) and an iron chelator (ABS), either with norepinephrine bitartrate added to the culture (lane 1), or without norepinephrine bitartrate (lane 2). Molecular weight markers (kD) are also shown (lane M).

The subject of assay [1] is Neisseria meningitidis strain B16B6. The experiment in a line: Growth of Neisseria meningitidis culture (optical density at 600 nm) with and without norepinephrine bitartrate. Particulars: 100 micromolar added at 20 hours post-inoculation; MEM with NEAA, Vitox (iron) and ABS (iron chelator); OD 600 nm until 30 hours. The assay is classed as cell-based. How it is done: A culture of Neisseria meningitidis strain B16B6 (obtainable from the National Collection of Type Cultures, PHLS, Colindale, London, UK) was grown overnight at 37 deg C. on a GC agar plate (Oxoid) containing 2% Vitox (Oxoid). Vitox is a defined growth supplement suitable for enrichment of culture media and contains, amongst other ingredients, a source of iron.
At the end of incubation, about 20 bacterial colonies were harvested from the GC agar plate and suspended in 100 microliters of sterile phosphate-buffered saline (PBS; Gibco). The resulting bacterial suspension was then grown at 37 deg C for 4 hours on a GC agar plate containing 2% Vitox. At the end of incubation, the agar plate was flooded with 2 ml of sterile PBS and the bacterial suspension transferred into a sterile container. Optical density of the suspension was then determined at 600 nm. An optical density at 600 nm of 0.1 is equivalent to about 2×10^8 cfu/ml of Neisseria meningitidis. […]
The test medium was incubated at 37 deg C. with shaking at 180 rpm. The optical density of the culture was measured at 600 nm at 2, 4 and 20 hours post-inoculation of the media.
At 20 hours post-inoculation, the test sample was divided into halves. […] Both half-samples were then further incubated at 37 deg C., and optical density at 600 nm measured every 2 hours until 30 hours post-inoculation. […]

Turning to `O=C(O)C(NCCNC(C(=O)O)c1ccccc1O)c1ccccc1O` (stereo not drawn) [EDDA, ethylene diamine di-ortho-hydroxyphenyl-acetic acid], the “growth of E. coli under low iron conditions and low inoculum levels” value with E. coli is listed as “nor to a lesser extent do they allow good growth”. Also, the “growth of Neisseria under low-iron conditions” value with Neisseria is given as “do not reliably allow good growth”.

As to `NC[C@H](O)c1ccc(O)c(O)c1` [norepinephrine bitartrate], in the assay with Neisseria meningitidis (compared with bacteria cultured without norepinephrine), the “newly expressed or overexpressed further proteins (SDS-PAGE)” value was “newly expressed or overexpressed further proteins with molecular weights of about 250 kDa, about 80 kDa, and about 28 kDa”. Further, the “proteins expressed only when grown in the presence of the inducer (SDS-PAGE, Coomassie)” value in the assay on Neisseria meningitidis (compared with bacteria grown in the absence of norepinephrine bitartrate, MEM with NEAA, Vitox, ABS) was “expressed proteins, including proteins with molecular weights of about 100 KDa and about 55 KDa”. For the same compound, the “over-expression of protein in comparison to bacteria grown without the inducer (SDS-PAGE)” value in the assay with Neisseria meningitidis (compared with bacteria grown without norepinephrine bitartrate) was “over-expression of an approximately 20 KDa protein”. The “growth of a culture of Neisseria meningitidis” value in assay [1] was “accelerated growth”.
